Experimental findings from US20230233569A1 (Revolution Medicines, Inc., priority 2020, published 2023) are described below.

In assay [1] the test system is P70S6K (Thr389) phosphorylation (mTORC1) in MDA-MB-468 cells. Put plainly: Cell based AlphaLISA assay, mTOR kinase cellular assay: inhibition of p-P70S6K (T389) in MDA-MB-468 cells. The conditions noted are these: Homo sapiens, read-out: pIC50 for Inhibition of mTORC1 and mTORC2 Substarte Phosphorylation p-P70S6K-(T389) (converted). In short, it runs like this: (§1)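 MDA-MB-468 cells treated with compound at 0.017-1,000 nM for two to four hours at 37° C, then lysed. Phospho-AKT1/2/3 S473, 4EBP1 T37/46 and P70S6K T389 quantified by AlphaLISA SureFire Ultra in duplicate; IC50 from normalized regression with control-based normalization.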

In assay [2] the test system is 4EBP1 (Thr37/46) phosphorylation (mTORC1) in MDA-MB-468 cells. In words: Cell based AlphaLISA assay, mTOR kinase cellular assay: inhibition of p-4E-BP1 (T37/46) in MDA-MB-468 cells. The conditions noted are these: Homo sapiens, read-out: pIC50 for Inhibition of mTORC1 and mTORC2 Substarte Phosphorylation p-4E-BP1-(T37/46) (converted). In short, it runs like this: as §1
For orientation: In Alpha technology, singlet oxygen from a donor bead excites a nearby acceptor bead.

In assay [3] the test system is AKT1/2/3 (Ser473) phosphorylation (mTORC2) in MDA-MB-468 cells. Put plainly: Cell based AlphaLISA assay, mTOR kinase cellular assay: inhibition of p-Akt (S473) in MDA-MB-468 cells. As to conditions: Homo sapiens, read-out: pIC50 for Inhibition of mTORC1 and mTORC2 Substarte Phosphorylation p-AKT1/2/3-(S473) (converted). In short, it runs like this: as §1

Take `CO[C@H]1C[C@@H]2CC[C@@H](C)[C@@](O)(O2)C(=O)C(=O)N2CCCC[C@H]2C(=O)O[C@H]([C@H](C)C[C@@H]2CC[C@@H](OC(=O)N3CCc4nc(N5CCN(c6ncc(C(=O)N7CCN(c8ncc(C(=O)N9CCc%10cc(Cn%11nc(-c%12ccc%13oc(N)nc%13c%12)c%12c(N)ncnc%12%11)ccc%10C9)cn8)CC7)cn6)CC5)ncc4C3)[C@H](OC)C2)CC(=O)[C@H](C)/C=C(\C)[C@@H](O)[C@@H](OC)C(=O)[C@H](C)C[C@H](C)/C=C/C=C/C=C/1C` [Example 62]: the IC50 was 1 to 10 nM in assay [1], above 1000 nM in assay [2] and above 1000 nM in assay [3].
Take `CO[C@H]1C[C@@H]2CC[C@@H](C)[C@@](O)(O2)C(=O)C(=O)N2CCCC[C@H]2C(=O)O[C@H]([C@H](C)C[C@@H]2CC[C@@H](OC(=O)NCc3cnc(N4CCN(C(=O)CCOCCN5CCN(c6ncc(C(=O)NCCOCCC(=O)NCCCCn7nc(-c8ccc9oc(N)nc9c8)c8c(N)ncnc87)cn6)CC5)CC4)nc3)[C@H](OC)C2)CC(=O)[C@H](C)/C=C(\C)[C@@H](O)[C@@H](OC)C(=O)[C@H](C)C[C@H](C)/C=C/C=C/C=C/1C` [Example 63]: the IC50 in assay [1] was at most 1 nM; in assay [2], at most 3.16 nM; in assay [3] it was at most 3.16 nM.
As for `CO[C@H]1C[C@@H]2CC[C@@H](C)[C@@](O)(O2)C(=O)C(=O)N2CCCC[C@H]2C(=O)O[C@H]([C@H](C)C[C@@H]2CC[C@@H](OC(=O)NCc3cnc(N4CCN(C(=O)CCOCCN5CCN(c6ncc(C(=O)NCCOCCC(=O)N7CCc8cc(Cn9nc(-c%10ccc%11oc(N)nc%11c%10)c%10c(N)ncnc%109)ccc8C7)cn6)CC5)CC4)nc3)[C@H](OC)C2)CC(=O)[C@H](C)/C=C(\C)[C@@H](O)[C@@H](OC)C(=O)[C@H](C)C[C@H](C)/C=C/C=C/C=C/1C` [Example 64], the values for the IC50 in assay [1], in assay [2] and in assay [3] were at most 1 nM, at most 3.16 nM and 3.16 to 31.6 nM, respectively.
Regarding `CO[C@H]1C[C@@H]2CC[C@@H](C)[C@@](O)(O2)C(=O)C(=O)N2CCCC[C@H]2C(=O)O[C@H]([C@H](C)C[C@@H]2CC[C@@H](OC(=O)NCc3cnc(N4CCN(C(=O)CCOCCN5CCN(c6ncc(C(=O)NCCOCCC(=O)N7CCc8cc(Cn9nc(-c%10ccc%11oc(N)nc%11c%10)c%10c(N)ncnc%109)ccc8C7)cn6)CC5)CC4)nc3)[C@H](OC)C2)C[C@@H](OC)[C@H](C)/C=C(\C)[C@@H](O)[C@@H](OC)C(=O)[C@H](C)C[C@H](C)/C=C/C=C/C=C/1C` [Example 65], the IC50 was at most 1 nM in assay [1], at most 3.16 nM in assay [2] and 31.6 to 1000 nM in assay [3].
For `CO[C@H]1C[C@@H]2CC[C@@H](C)[C@@](O)(O2)C(=O)C(=O)N2CCCC[C@H]2C(=O)O[C@H]([C@H](C)C[C@@H]2CC[C@@H](OC(=O)NCc3cnc(N4CCN(C(=O)CCOCCN5CCN(c6ncc(C(=O)NCCOCCC(=O)NCCCCn7nc(-c8cnc9[nH]ccc9c8)c8c(N)ncnc87)cn6)CC5)CC4)nc3)[C@H](OC)C2)CC(=O)[C@H](C)/C=C(\C)[C@@H](O)[C@@H](OC)C(=O)[C@H](C)C[C@H](C)/C=C/C=C/C=C/1C` [Example 66] the same measures were 10 to 1000 nM, 31.6 to 1000 nM and 3.16 to 31.6 nM.
Take `CO[C@H]1C[C@@H]2CC[C@@H](C)[C@@](O)(O2)C(=O)C(=O)N2CCCC[C@H]2C(=O)O[C@H]([C@H](C)C[C@@H]2CC[C@@H](OC(=O)NCCOCCC(=O)NCc3cnc(N4CCN(C(=O)CCOCCN5CCN(c6ncc(C(=O)N7CCc8cc(Cn9nc(-c%10ccc%11oc(N)nc%11c%10)c%10c(N)ncnc%109)ccc8C7)cn6)CC5)CC4)nc3)[C@H](OC)C2)CC(=O)[C@H](C)/C=C(\C)[C@@H](O)[C@@H](OC)C(=O)[C@H](C)C[C@H](C)/C=C/C=C/C=C/1C` [Example 67]: the figures for the IC50 in assay [1], in assay [2] and in assay [3] were 10 to 1000 nM, 31.6 to 1000 nM and 31.6 to 1000 nM, respectively.
As to `CO[C@H]1C[C@@H]2CC[C@@H](C)[C@@](O)(O2)C(=O)C(=O)N2CCCC[C@H]2C(=O)O[C@H]([C@H](C)C[C@@H]2CC[C@@H](OC(=O)NCCOCCC(=O)NCc3cnc(N4CCN(C(=O)CCOCCN5CCN(c6ncc(C(=O)NCCCCn7nc(-c8cnc9[nH]ccc9c8)c8c(N)ncnc87)cn6)CC5)CC4)nc3)[C@H](OC)C2)CC(=O)[C@H](C)/C=C(\C)[C@@H](O)[C@@H](OC)C(=O)[C@H](C)C[C@H](C)/C=C/C=C/C=C/1C` [Example 68], the figures for the IC50 in assay [1], in assay [2] and in assay [3] were at most 1 nM, at most 3.16 nM and above 1000 nM, respectively.
As for `CO[C@H]1C[C@@H]2CC[C@@H](C)[C@@](O)(O2)C(=O)C(=O)N2CCCC[C@H]2C(=O)O[C@H]([C@H](C)C[C@@H]2CC[C@@H](OC(=O)NCCOCCC(=O)NCc3cnc(N4CCN(C(=O)CCOCCN5CCN(c6ncc(C(=O)N7CCc8cc(Cn9nc(-c%10ccc%11oc(N)nc%11c%10)c%10c(N)ncnc%109)ccc8C7)cn6)CC5)CC4)nc3)[C@H](OC)C2)C[C@@H](O)[C@H](C)/C=C(\C)[C@@H](O)[C@@H](OC)C(=O)[C@H](C)C[C@H](C)/C=C/C=C/C=C/1C` [Example 69], the IC50 is at most 1 nM in assay [1], at most 3.16 nM in assay [2] and 3.16 to 31.6 nM in assay [3].
For `CO[C@H]1C[C@@H]2CC[C@@H](C)[C@@](O)(O2)C(=O)C(=O)N2CCCC[C@H]2C(=O)O[C@H]([C@H](C)C[C@@H]2CC[C@@H](OC(=O)NCCOCCC(=O)NCc3cnc(N4CCN(C(=O)CCOCCN5CCN(c6ncc(C(=O)N7CCc8cc(Cn9nc(-c%10ccc%11oc(N)nc%11c%10)c%10c(N)ncnc%109)ccc8C7)cn6)CC5)CC4)nc3)[C@H](OC)C2)C[C@@H](OC)[C@H](C)/C=C(\C)[C@@H](O)[C@@H](OC)C(=O)[C@H](C)C[C@H](C)/C=C/C=C/C=C/1C` [Example 70], the IC50 in assay [1] was at most 1 nM; in assay [2], at most 3.16 nM; in assay [3], 31.6 to 1000 nM.
For `CO[C@H]1C[C@@H]2CC[C@@H](C)[C@@](O)(O2)C(=O)C(=O)N2CCCC[C@H]2C(=O)O[C@H]([C@H](C)C[C@@H]2CC[C@@H](OC(=O)NCCOCCOCCOCCOCCOCCOCCOCCOCC(=O)N3CCc4cc(Cn5nc(-c6ccc7oc(N)nc7c6)c6c(N)ncnc65)ccc4C3)[C@H](OC)C2)CC(=O)[C@H](C)/C=C(\C)[C@@H](O)[C@@H](OC)C(=O)[C@H](C)C[C@H](C)/C=C/C=C/C=C/1C` [Example 71] the same measures were at most 1 nM, at most 3.16 nM and 3.16 to 31.6 nM.
With `CO[C@H]1C[C@@H]2CC[C@@H](C)[C@@](O)(O2)C(=O)C(=O)N2CCCC[C@H]2C(=O)O[C@H]([C@H](C)C[C@@H]2CC[C@@H](OC(=O)NCc3cnc(N4CCN(C(=O)CN(C)CC(=O)NCCOCCOCCC(=O)NCCCCn5nc(-c6ccc7oc(N)nc7c6)c6c(N)ncnc65)CC4)nc3)[C@H](OC)C2)C[C@@H](OC)[C@H](C)/C=C(\C)[C@@H](O)[C@@H](OC)C(=O)[C@H](C)C[C@H](C)/C=C/C=C/C=C/1C` [Example 104], the IC50 was at most 1 nM in assay [1], at most 3.16 nM in assay [2] and above 1000 nM in assay [3].
